What was measured:
[1] = target: T1, IRAK1 (Homo sapiens, UniProt P51617); test: RBC HotSpot Kinase Assay, IRAK1; format: biochemical; details: isolated kinase enzyme, 33P-ATP, P81 filter-binding
T1 construct: purchased Reaction Biology (RBC HotSpot)
Outline: (§1)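 Reactions ran in 20 mM Hepes (pH 7.5) containing 10 mM MgCl2, 1 mM EGTA, 0.1 mM Na3VO4, 2 mM DTT, 0.02 mg/ml BSA, 0.01% Brij35 and 1% DMSO, plus required cofactors. Functional activity readout on the expressible enzyme form, sometimes C-terminally truncated or lacking receptor regulatory regions.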

[2] = tested on: MOLM14 F691L cells; test: MOLM14 F691L cell viability assay (Cell Titer Glo); format: cell-based; details: Homo sapiens, MOLM-14; cell viability, Cell Titer Glo, 48 hours; read-out: MOLM14 F691L IC50
Protocol: Both cell lines have activated FLT3 receptors, each of which carry additional resistance mutations in the kinase domain (D835Y and F691L, respectively).
For viability/cytotoxicity assessments, cells were seeded into 1536-well white polystyrene tissue culture-treated Greiner plates using a Multidrop Combi dispenser (ThermoFisher), in final volume 5 μL of growth media per well, at a density of 1000 cells per well. […] Plates were incubated for 48 hours at standard incubator conditions covered by a stainless steel gasketed lid to prevent evaporation. 48 hours post compound addition, 3 μL of Cell Titer Glo (Promega) were added to each well and plates were incubated at room temperature for 15 minutes with the stainless-steel lid in place. Luminescence readings were taken using a Viewlux imager (PerkinElmer) with a 2 second exposure time per plate.

[3] = target: T2, FLT3 (Homo sapiens, UniProt P36888); test: RBC HotSpot Kinase Assay, FLT3; format: biochemical; parameters: purchased Reaction Biology (RBC HotSpot); details: isolated kinase enzyme, 33P-ATP, P81 filter-binding
T2 sequence (P36888 27-993): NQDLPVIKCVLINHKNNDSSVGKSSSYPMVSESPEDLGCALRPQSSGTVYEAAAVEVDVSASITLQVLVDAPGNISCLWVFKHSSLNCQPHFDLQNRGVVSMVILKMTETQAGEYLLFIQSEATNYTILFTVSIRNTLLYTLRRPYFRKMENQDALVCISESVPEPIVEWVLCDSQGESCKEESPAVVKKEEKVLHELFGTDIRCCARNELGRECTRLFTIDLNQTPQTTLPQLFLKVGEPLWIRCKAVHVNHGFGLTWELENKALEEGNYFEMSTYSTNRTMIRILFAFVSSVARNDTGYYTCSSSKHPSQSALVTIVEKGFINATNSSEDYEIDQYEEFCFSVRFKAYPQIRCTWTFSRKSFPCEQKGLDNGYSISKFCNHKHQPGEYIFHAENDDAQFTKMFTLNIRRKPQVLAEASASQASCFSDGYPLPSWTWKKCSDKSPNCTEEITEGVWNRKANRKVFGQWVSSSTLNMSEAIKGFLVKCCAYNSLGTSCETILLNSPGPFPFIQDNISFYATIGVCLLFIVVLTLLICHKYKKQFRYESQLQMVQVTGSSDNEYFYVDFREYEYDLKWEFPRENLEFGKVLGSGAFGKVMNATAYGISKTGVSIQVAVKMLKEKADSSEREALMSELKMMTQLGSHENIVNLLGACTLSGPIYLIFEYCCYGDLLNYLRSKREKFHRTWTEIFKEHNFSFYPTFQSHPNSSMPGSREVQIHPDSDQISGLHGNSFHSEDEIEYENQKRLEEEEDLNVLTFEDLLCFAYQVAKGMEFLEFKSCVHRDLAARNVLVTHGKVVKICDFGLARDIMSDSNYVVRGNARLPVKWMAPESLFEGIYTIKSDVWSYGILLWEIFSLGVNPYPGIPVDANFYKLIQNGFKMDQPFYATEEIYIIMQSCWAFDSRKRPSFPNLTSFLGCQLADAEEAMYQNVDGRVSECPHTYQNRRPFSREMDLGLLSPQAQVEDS
Outline: as §1

[4] = tested on: MOLM14 D835Y cells; test: MOLM14 D835Y cell viability assay (Cell Titer Glo); format: cell-based; details: Homo sapiens, MOLM-14, 48 h, cell viability, Cell Titer Glo, 48 hours; read-out: MOLM14 D835Y IC50
Outline: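 Luminescent ATP read-out (CellTiter-Glo, 15 min room temperature) taken 48 h after compound addition. Cells were MOLM14 carrying FLT3 D835Y or F691L mutations, plated at 1000 cells per well.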

[5] = target: T3, IRAK4 (Homo sapiens, UniProt Q9NWZ3); test: RBC HotSpot Kinase Assay, IRAK4; format: biochemical; parameters: purchased Reaction Biology (RBC HotSpot); details: isolated kinase enzyme, 33P-ATP, P81 filter-binding
T3 sequence (Q9NWZ3 1-460): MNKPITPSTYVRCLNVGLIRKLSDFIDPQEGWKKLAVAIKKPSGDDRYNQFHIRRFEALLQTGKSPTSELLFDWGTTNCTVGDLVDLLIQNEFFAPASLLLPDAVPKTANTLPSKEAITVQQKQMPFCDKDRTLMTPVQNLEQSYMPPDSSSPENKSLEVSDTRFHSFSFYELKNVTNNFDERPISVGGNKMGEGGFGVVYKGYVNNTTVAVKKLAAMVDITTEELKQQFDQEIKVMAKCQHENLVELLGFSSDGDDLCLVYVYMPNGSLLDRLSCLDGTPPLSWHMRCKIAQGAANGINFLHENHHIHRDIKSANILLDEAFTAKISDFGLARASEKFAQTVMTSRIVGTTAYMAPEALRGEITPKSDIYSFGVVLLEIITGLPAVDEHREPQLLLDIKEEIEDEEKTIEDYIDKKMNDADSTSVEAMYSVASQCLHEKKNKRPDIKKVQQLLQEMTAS
Outline: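 Radiometric filter-binding activity assay with isolated recombinant kinase (construct may be truncated or catalytic domain only) in 20 mM Hepes pH 7.5, 10 mM MgCl2, 1 mM EGTA, 2 mM DTT, 1% DMSO. Compound preincubated 20 min with kinase/substrate; reaction started with 33P-ATP, run 2 h at room temperature.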

T1 sequence (P51617 whole entry): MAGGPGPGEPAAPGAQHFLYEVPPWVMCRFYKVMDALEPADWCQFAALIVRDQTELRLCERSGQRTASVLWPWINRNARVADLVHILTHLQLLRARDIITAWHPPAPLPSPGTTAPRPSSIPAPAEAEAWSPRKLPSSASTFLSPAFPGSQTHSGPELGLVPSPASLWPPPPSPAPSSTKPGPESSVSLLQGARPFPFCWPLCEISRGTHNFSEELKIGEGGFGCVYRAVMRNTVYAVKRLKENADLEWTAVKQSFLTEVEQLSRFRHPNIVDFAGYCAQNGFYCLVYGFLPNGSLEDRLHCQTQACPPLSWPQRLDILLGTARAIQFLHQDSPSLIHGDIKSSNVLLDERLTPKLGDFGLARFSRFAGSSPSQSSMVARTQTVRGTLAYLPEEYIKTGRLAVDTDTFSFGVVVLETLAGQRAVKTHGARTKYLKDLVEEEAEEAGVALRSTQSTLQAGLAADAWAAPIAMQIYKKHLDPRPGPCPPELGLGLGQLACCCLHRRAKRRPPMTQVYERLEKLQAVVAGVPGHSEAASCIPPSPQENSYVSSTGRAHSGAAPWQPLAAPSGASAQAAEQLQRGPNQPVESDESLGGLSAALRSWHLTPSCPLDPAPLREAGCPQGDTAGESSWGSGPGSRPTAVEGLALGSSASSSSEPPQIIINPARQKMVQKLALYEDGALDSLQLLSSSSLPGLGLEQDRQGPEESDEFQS

COc1cc2ncc(-c3nc(N[C@H]4CNCC[C@@H]4F)ncc3Cl)n2nc1C1CC1 [Compound 103a, 5-chloro-4-(6-cyclopropyl-7-methoxyimidazo[1,2-b]pyridazin-3-yl)-N-((3S,4S)-4-fluoropiperidin-3-yl)pyrimidin-2-amine]
IC50 [1]: 0.179 µM
IC50 [2]: 0.201 µM
IC50 [3]: 0.0007 µM
IC50 [4]: 0.071 µM
IC50 [5]: 0.003 µM

COc1cc2ncc(-c3ccnc(N[C@@H]4CCCNC4)n3)n2nc1C1CCCC1 [Compound 84a, (R)-4-(6-cyclopentyl-7-methoxyimidazo[1,2-b]pyridazin-3-yl)-N-(piperidin-3-yl)pyrimidin-2-amine]
IC50 [1]: 0.018 µM
IC50 [2]: 0.113 µM
IC50 [3]: < 0.0005 µM
IC50 [4]: 0.014 µM
IC50 [5]: 0.002 µM

COc1cc2ncc(-c3ccnc(N[C@H]4CNC[C@@H]4F)n3)n2nc1C1CCCC1 [Compound 83a, 4-(6-cyclopentyl-7-methoxyimidazo[1,2-b]pyridazin-3-yl)-N-((3S,4S)-4-fluoropyrrolidin-3-yl)pyrimidin-2-amine]
IC50 [1]: 0.008 µM
IC50 [2]: 0.113 µM
IC50 [3]: < 0.0005 µM
IC50 [4]: 0.016 µM
IC50 [5]: 0.0006 µM

COc1cc2ncc(-c3nc(N[C@@H]4CCCNC4)ncc3F)n2nc1C1CCC1 [Compound 53a, (R)-4-(6-cyclobutyl-7-methoxyimidazo[1,2-b]pyridazin-3-yl)-5-fluoro-N-(piperidin-3-yl)pyrimidin-2-amine]
IC50 [1]: 0.001 µM
IC50 [2]: 0.01 µM
IC50 [3]: < 0.0005 µM
IC50 [4]: 0.001 µM
IC50 [5]: < 0.0005 µM

COc1cc2ncc(-c3nc(N[C@H]4CNCC[C@@H]4F)ncc3F)n2nc1C12CC(C1)C2 [Compound 69a, 4-(6-(bicyclo[1.1.1]pentan-1-yl)-7-methoxyimidazo[1,2-b]pyridazin-3-yl)-5-fluoro-N-((3S,4S)-4-fluoropiperidin-3-yl)pyrimidin-2-amine]
IC50 [1]: 0.0009 µM
IC50 [2]: 0.025 µM
IC50 [3]: < 0.0005 µM
IC50 [4]: 0.003 µM
IC50 [5]: 0.0007 µM

COc1cc2ncc(-c3ccnc(N[C@H]4CNC[C@@H]4F)n3)n2nc1C1CC(C)(C)C1 [Compound 80a, 4-(6-(3,3-dimethylcyclobutyl)-7-methoxyimidazo[1,2-b]pyridazin-3-yl)-N-((3S,4S)-4-fluoropyrrolidin-3-yl)pyrimidin-2-amine]
IC50 [1]: 0.142 µM
IC50 [2]: 0.798 µM
IC50 [3]: < 0.0005 µM
IC50 [4]: 0.09 µM
IC50 [5]: 0.017 µM

Fc1cnc(N[C@H]2CNCC[C@@H]2F)nc1-c1cnc2cnc(C3COC3)cn12 [Compound 117a, 5-fluoro-N-((3S,4S)-4-fluoropiperidin-3-yl)-4-(6-(oxetan-3-yl)imidazo[1,2-a]pyrazin-3-yl)pyrimidin-2-amine]
IC50 [1]: 0.397 µM
IC50 [2]: 1.59 µM
IC50 [3]: 0.003 µM
IC50 [4]: 0.159 µM
IC50 [5]: 0.045 µM

COc1cc2ncc(-c3ccnc(N[C@@H]4CCCNC4)n3)n2nc1C1CC2(CCC2)C1 [Compound 76a, (R)-4-(7-methoxy-6-(spiro[3.3]heptan-2-yl)imidazo[1,2-b]pyridazin-3-yl)-N-(piperidin-3-yl)pyrimidin-2-amine]
IC50 [1]: 0.037 µM
IC50 [2]: 1.13 µM
IC50 [3]: < 0.0005 µM
IC50 [4]: 0.101 µM
IC50 [5]: 0.021 µM

COc1cc2ncc(-c3ccnc(N[C@H]4CNC[C@@H]4F)n3)n2nc1C1CC2(CCC2)C1 [Compound 75a, N-((3S,4S)-4-fluoropyrrolidin-3-yl)-4-(7-methoxy-6-(spiro[3.3]heptan-2-yl)imidazo[1,2-b]pyridazin-3-yl)pyrimidin-2-amine]
IC50 [1]: 0.102 µM
IC50 [2]: 0.634 µM
IC50 [3]: < 0.0005 µM
IC50 [4]: 0.063 µM
IC50 [5]: 0.006 µM

CC(C)(O)c1cn2c(-c3nc(N[C@H]4CNC[C@@H]4F)ncc3F)cnc2cn1 [Compound 98a, 2-(3-(5-fluoro-2-(((3S,4S)-4-fluoropyrrolidin-3-yl)amino)pyrimidin-4-yl)imidazo[1,2-a]pyrazin-6-yl)propan-2-ol]
IC50 [1]: 0.046 µM
IC50 [2]: 2.52 µM
IC50 [3]: 0.001 µM
IC50 [4]: 0.113 µM
IC50 [5]: 0.002 µM

COc1cc2ncc(-c3nc(N[C@H]4CNCC[C@@H]4F)ncc3F)n2nc1C1CCCC1 [Compound 63a, 4-(6-cyclopentyl-7-methoxyimidazo[1,2-b]pyridazin-3-yl)-5-fluoro-N-((3S,4S)-4-fluoropiperidin-3-yl)pyrimidin-2-amine]
IC50 [1]: < 0.0005 µM
IC50 [2]: 0.013 µM
IC50 [3]: < 0.0005 µM
IC50 [4]: 0.002 µM
IC50 [5]: < 0.0005 µM

COc1cc2ncc(-c3nc(N[C@@H]4CCCNC4)ncc3Cl)n2nc1C1CC1 [Compound 102a, (R)-5-chloro-4-(6-cyclopropyl-7-methoxyimidazo[1,2-b]pyridazin-3-yl)-N-(piperidin-3-yl)pyrimidin-2-amine]
IC50 [1]: 0.081 µM
IC50 [2]: 0.071 µM
IC50 [3]: < 0.0005 µM
IC50 [4]: 0.023 µM
IC50 [5]: 0.002 µM

COc1cc2ncc(-c3nc(N[C@@H]4CCCNC4)ncc3F)n2nc1C1CCCCC1 [Compound 65a, (R)-4-(6-cyclohexyl-7-methoxyimidazo[1,2-b]pyridazin-3-yl)-5-fluoro-N-(piperidin-3-yl)pyrimidin-2-amine]
IC50 [1]: < 0.0005 µM
IC50 [2]: 0.018 µM
IC50 [3]: < 0.0005 µM
IC50 [4]: 0.003 µM
IC50 [5]: < 0.0005 µM

COc1cc2ncc(-c3nc(N[C@H]4CNC[C@@H]4F)ncc3Cl)n2nc1C1CC1 [Compound 101a, 5-chloro-4-(6-cyclopropyl-7-methoxyimidazo[1,2-b]pyridazin-3-yl)-N-((3S,4S)-4-fluoropyrrolidin-3-yl)pyrimidin-2-amine]
IC50 [1]: 0.024 µM
IC50 [2]: 0.711 µM
IC50 [3]: 0.0008 µM
IC50 [4]: 0.113 µM
IC50 [5]: 0.001 µM

COc1cc2ncc(-c3nc(N[C@H]4CNC[C@@H]4F)ncc3F)n2nc1N1CCS(=O)(=O)CC1 [Compound 123a, 4-(3-(5-fluoro-2-(((3S,4S)-4-fluoropyrrolidin-3-yl)amino)pyrimidin-4-yl)-7-methoxyimidazo[1,2-b]pyridazin-6-yl)thiomorpholine 1,1-dioxide]
IC50 [1]: 0.043 µM
IC50 [2]: 1.01 µM
IC50 [3]: < 0.0005 µM
IC50 [4]: 0.063 µM
IC50 [5]: 0.005 µM

Reference: US20260226048A1, “MULTI-CYCLIC IRAK AND FLT3 INHIBITING COMPOUNDS AND USES THEREOF” (CHILDREN'S HOSPITAL MEDICAL CENTER, priority 2023, published 2026)
